The assay concerns the target CRBN (human cereblon) (Homo sapiens, UniProt Q96SW2). Briefly: HTRF human cereblon binding kit (competition). For orientation: TR-FRET usually uses a lanthanide donor and a delayed reading to cut background.

For 1 compound, IC50 results are on record in doi:10.1101/2025.02.26.640266v1, “Predicting PROTAC-targeted Degradation and Designing Androgen Receptor Degraders with AiPROTAC” (biorxiv, 2025).

`CC1(C)[C@H](NC(=O)c2ccc(N3CCN(CCCSc4ccc5c(c4)CN(C4CCC(=O)NC4=O)C5=O)CC3)nc2)C(C)(C)[C@H]1Oc1ccc(C#N)c(Cl)c1` (stereo partly shown) [GT19, PROTAC GT19] had a half-maximal inhibitory concentration (IC50) of 150 nM.

Usually IC50 stands for the concentration that inhibits the measured activity by half.
